# Reference: patent publication US20240368209A1, “GEMCITABINE ANTICANCER DERIVATIVE AND ANTICANCER PHARMACEUTICAL USE” (ASCENTAWITS PHARMACEUTICALS, LTD., priority 2021, published 2024)
# What was measured:
# [1] = Metabolic stability in mouse liver microsomes; assay type: in vitro ADME
# Description: Main solutions were prepared according to Table 9 below:
# (II) Two Separate Experiments were Performed • a) With cofactor (NADPH): 25 μL of 10 mM NADPH was added to the culture broth. The final concentration of liver microsomes was 0.5 mg/mL, and the final concentration of NADPH was 1 mM. • b) Without cofactor (NADPH): 25 μL of 100 mM phosphate buffer was added. The final concentration of liver microsomes was 0.5 mg/mL. The mixture was preheated at 37° C. for 10 minutes. (III) 25 μL of […] control compound or test compound solution was added to start the reaction. […] The final concentrations of the test compound and control compound were both 1 μM. The culture broth was cultured in water at 37° C. (IV) Aliquots of 30 μL were collected from the reaction solution at 0.5, 5, 15, 30, and 60 minutes, respectively. 5 volumes of cold acetonitrile and IS (internal standard, containing 100 nM of alprazolam, 200 nM of caffeine, and 100 nM of tolylbutanamide) were added to stop the reaction. […] 100 μL of supernatant was taken and mixed with 100 μL of ultrapure water, equally divided and analyzed with LC-MS/MS.
# All calculations were conducted using Microsoft Excel. The peak area was determined from the extracted ion chromatogram.
# [formula] [formula] [formula] • wherein, QH is the hepatic blood flow (mL/min/kg) in Table 10, and fub is the fraction of drug unbound in plasma, and assumed as 1.
# [2] = Maximal tolerance dose (MTD) test; assay type: in vivo; details: mice
# Description: According to the research scheme in Table 14, mice were grouped and administered at the concentrations and dosage levels shown in Table 14. On the 1st to 5th day and the 14th to 19th day, intraperitoneal injection of a solvent control or compound H11 at different dosage levels was performed, with a dose volume of 10 mL/kg. Animals in Groups 1, 3, and 4 were put to death and autopsied on the 22nd day, and animals in Group 2 were put to death and autopsied on the 16th day.
# The evaluated parameters included cage-side observation, detailed clinical observation, and post-administration observation (approximately 1-2 hours after dosing), body weight and weight change, food intake, and gross pathology.
# [3] = tested on: HuPrime pancreatic cancer xenograft model PA1222; assay: In vivo pharmacodynamic experiment in HuPrime pancreatic cancer PA1222 PDX model; details: for Average weight (g) of mice / Tumor volume (mm^3) (x ± S): Group 3, 240 mg/kg p.o.
# [4] = Group 3, 240 mg/kg p.o. QD×21, Day 32
smiles,measurement,setting,value
CC(C)NP(=O)(OCc1ccc([N+](=O)[O-])c(Oc2ccc(-c3ccc(F)cc3)c(F)c2)c1)OCC1OC(C2N=CC(N)=NC2=O)C(F)(F)C1O (stereo not shown) [Compound H11],Hepatic Extraction Ratio (ER),[1],0.73
same,Predicted Hepatic CLH,[1],65.90 mL/min/kg
same,clearance and stability in liver microsomes (in words),[1],medium clearances and certain stability
same,Remaining percentage (%),"[1]; NADPH added, 0.5 minutes, 1 μM",100.00%
same,Remaining percentage (%),"[1]; NADPH added, 5 minutes",85.55%
same,Remaining percentage (%),"[1]; NADPH added, 15 minutes",55.03%
same,Remaining percentage (%),"[1]; NADPH added, 30 minutes",36.05%
same,Remaining percentage (%),"[1]; NADPH added, 60 minutes",16.85%
same,Remaining percentage (%),"[1]; NADPH not added, 0.5 minutes",100.00%
same,Remaining percentage (%),"[1]; NADPH not added, 60 minutes",93.32%
same,half-life at 1 μM,[1]; read-out: In vitro half-life t1/2,23.3 min
same,microsomal CLint at 1 μM,[1]; read-out: In vitro intrinsic clearance CLint,59.5 µL/min/mg
same,CLint scaled at 1 μM,[1]; read-out: Scale-up CLint,246 mL/min/kg
same,Clinical symptoms,"[2]; 80, 160, 320 mg/kg/day i.p.",No abnormal compound-related clinical manifestation was observed
same,Impact on animal weight and food intake,"[2]; 80, 160, 320 mg/kg/day i.p.",No abnormal compound-related change in body weight or food intake was observed
same,Mortality of animals,"[2]; 80, 160, 320 mg/kg/day i.p., two rounds of 5 days",all experimental animals survived until the planned autopsy
same,dose at which enlargement of the spleen was visible (pathological examination),[2]; i.p.,≥ 160 mg/kg
same,dose group with change to white in the renal capsule (pathological examination),[2]; i.p.,320 mg/kg
same,maximal tolerance dose,[2]; intraperitoneal injection once a day for 5 consecutive days,320 mg/kg
same,weight loss and tolerability during treatment,"[3]; Group 3, 240 mg/kg p.o. QD×21","did not show any significant weight loss, and tolerated well"
same,Relative tumor volume (x ± S),[3]; [4],0.47 ± 0.27
same,T/C (%),[3]; [4],7.65%
same,TGI (%),[3]; [4],92.35%
same,complete tumor inhibition rate,[3]; [4],20%
same,Tumor volume (x ± S),"[3]; Group 3, 240 mg/kg p.o. QD×21, Day 32, mean ± standard error",44.61 ± 22.14
same,Average weight (g) of mice,[3]; Day 0,21.8 g
same,Average weight (g) of mice,[3]; Day 1,21.5 g
same,Average weight (g) of mice,[3]; Day 2,21.5 g
same,Average weight (g) of mice,[3]; Day 3,21.6 g
same,Average weight (g) of mice,[3]; Day 4,21.9 g
same,Average weight (g) of mice,[3]; Day 5,22.3 g
same,Average weight (g) of mice,[3]; Day 6,21.7 g
same,Average weight (g) of mice,[3]; Day 7,21.6 g
same,Average weight (g) of mice,[3]; Day 8,21.7 g
same,Average weight (g) of mice,[3]; Day 9,22.5 g
same,Average weight (g) of mice,[3]; Day 10,21.6 g
same,Average weight (g) of mice,[3]; Day 11,21.9 g
same,Average weight (g) of mice,[3]; Day 12,22.0 g
same,Average weight (g) of mice,[3]; Day 13,21.9 g
same,Average weight (g) of mice,[3]; Day 14,21.6 g
same,Average weight (g) of mice,[3]; Day 15,21.6 g
same,Average weight (g) of mice,[3]; Day 16,22.1 g
same,Average weight (g) of mice,[3]; Day 17,21.8 g
same,Average weight (g) of mice,[3]; Day 18,21.9 g
same,Average weight (g) of mice,[3]; Day 19,21.8 g
same,Average weight (g) of mice,[3]; Day 20,21.9 g
same,Average weight (g) of mice,[3]; Day 21,21.8 g
same,Average weight (g) of mice,[3]; Day 25,22.6 g
same,Average weight (g) of mice,[3]; Day 28,22.4 g
same,Average weight (g) of mice,[3]; Day 32,22.9 g
same,Tumor volume (mm^3) (x ± S),[3]; day 0,102.83 mm^3
same,Tumor volume (mm^3) (x ± S),[3]; day 4,123.16 mm^3
same,Tumor volume (mm^3) (x ± S),[3]; day 7,90.07 mm^3
same,Tumor volume (mm^3) (x ± S),[3]; day 11,54.28 mm^3
same,Tumor volume (mm^3) (x ± S),[3]; day 14,41.73 mm^3
same,Tumor volume (mm^3) (x ± S),[3]; day 18,34.60 mm^3
same,Tumor volume (mm^3) (x ± S),[3]; day 21,29.52 mm^3
same,Tumor volume (mm^3) (x ± S),[3]; day 25,30.71 mm^3
same,Tumor volume (mm^3) (x ± S),[3]; day 28,30.59 mm^3
same,Tumor volume (mm^3) (x ± S),[3]; day 32,44.61 mm^3
same,weight loss and tolerability during treatment,"[3]; Group 4, 160 mg/kg i.p. QD×5, 2 days off, 2 weeks off, QD×5","did not show any significant weight loss, and tolerated well"
